Data reported in article PMC4627231, “Targeting the sugar metabolism of tumors with a first-in-class 6-phosphofructo-2-kinase (PFKFB4) inhibitor” (Oncotarget, 2015).

Assays:
[1] = system: H460 human lung adenocarcinoma xenografts; test: H460 xenograft growth in athymic mice; type: in vivo, BALB/c athymic mice; details: 120 mg/kg daily by gavage
Protocol: (§1) For xenograft studies, LLC or H460 cells collected from exponential growth phase culture were washed and resuspended in PBS. Groups of female C57BL/6 mice were injected with LLC cells (n=10 per group, s.c., 1×10^6 cells) and groups of female BALB/c athymic mice (Charles River) were injected with H460 cells (n=10 per group, s.c, 5 × 10^6 cells). Tumor masses were determined in a blinded fashion with Vernier calipers using the formula: mass (mg) = (width, mm)^2 X (length, mm)/2 as previously described. When tumor masses were 150-200 mg, mice were randomized to daily DMSO or 5MPN (in 30% Captisol, 100 μl, by gavage). Tumor measurements and body weights were followed daily. All data are expressed as the mean ± SD of two experiments. Statistical significance was assessed by the two-sample t test (independent variable).

[2] = system: ATP in H460 cells; test: Intracellular ATP measurement; type: cell-based, human; details: 10 μM, 6-72 hours
Protocol: Cells were lysed and intracellular ATP determined as described previously. All data are expressed as the mean ± SD of three experiments. Statistical significance was assessed by the two-sample t test (independent variable).

[3] = system: normal human bronchial epithelial (NHBE) cells; test: Viable cell count (trypan blue exclusion); type: cell-based; details: live cells counted at 48 hours
Protocol: (§2) Viability was determined using trypan blue exclusion as previously described. Cells were incubated in 20% trypan blue (Sigma) for 5 minutes. Cells excluding trypan blue were counted using a standard hemocytometer (Hausser Scientific) to determine total numbers of viable cells. Data are expressed as mean ± SD of three experiments.

[4] = biological target: human recombinant PFKFB4 (Homo sapiens, UniProt Q16877); test: In vitro kinase assay with purified recombinant human PFKFB4; type: biochemical; details: Lineweaver-Burk analyses
Protocol: Figure 1 Compound 5MPN inhibits recombinant PFKFB4 enzyme activity A. Representation of the 5MPN molecule docked in the crystal structure of rat testes PFKFB4. 5MPN is shown in thicker stick representation than the surrounding protein residues. B. Molecular structure of 5MPN (MW, 305.3 Da). In vitro kinase assays using purified recombinant human PFKFB4 were performed as described in the presence or absence of 0.1, 1 or 10 μM 5MPN. Michaelis-Menten C. and Lineweaver-Burk double reciprocal D. plots examining PFKFB4 enzyme activity as a function of F6P concentration (0 - 2000 μmol/L) are shown. E. In vitro kinase assays using purified recombinant human PFKFB3 were performed as described in the presence or absence of 0.1, 1 or 10 μM 5MPN and the Michaelis-Menten plot examining PFKFB3 enzyme activity as a function of F6P concentration (0 - 400 μmol/L) is shown. Data shown are representative of three independent experiments. […] The activity of 5MPN against 97 kinases was examined using a commercially available active-site dependent competition binding assay core service (KINOMEscanEDGE) that quantifies the capacity of test agents to compete with an immobilized, active-site directed ligand using a DNA-tagged kinase and immobilized ligand and compound.

[5] = system: H460 cells; test: Apoptosis by flow cytometry (annexin V / propidium iodide); type: cell-based, human; details: 10μM 5MPN
Protocol: To measure apoptosis, cells were stained with annexin V and propidium iodide and examined as previously described. For cell cycle experiments, cells were detached, washed with cold PBS and fixed in 70% ethanol at 4°C for 30 minutes. The cells then were pelleted by centrifugation, resuspended in PBS containing PI and RNase A, incubated at 37°C in the dark for 30 minutes and analyzed by flow cytometry (BD FACSCalibur). Data were analyzed using FlowJo software (TREE STAR Inc.). Results were calculated as the mean ± SD of three experiments and data shown are representative of three independent experiments.

[6] = system: H522 cells; test: Viable cell count (trypan blue exclusion); type: cell-based, human; details: H522, 48 hours
Protocol: as §2

[7] = system: H441 cells; test: Viable cell count (trypan blue exclusion); type: cell-based, human; details: H441, 48 hours
Protocol: as §2

[8] = system: MDA-MB-231 cells; test: Viable cell count (trypan blue exclusion); type: cell-based, human; details: MDA-MB-231, 48 hours
Protocol: as §2

[9] = system: H1299 cells; test: Viable cell count (trypan blue exclusion); type: cell-based, human; details: H1299, 48 hours
Protocol: as §2

[10] = system: HCT116 cells; test: Viable cell count (trypan blue exclusion); type: cell-based, human; details: HCT116, 48 hours
Protocol: as §2

[11] = system: A549 cells; test: Viable cell count (trypan blue exclusion); type: cell-based, human; details: A549, 48 hours
Protocol: as §2

[12] = system: hT/LT/Ras cells; test: Viable cell count (trypan blue exclusion); type: cell-based, human; details: live cells counted at 48 hours
Protocol: as §2

[13] = system: H460 cells; test: Viable cell count (trypan blue exclusion); type: cell-based, human
Protocol: as §2

[14] = system: LNCaP cells; test: Viable cell count (trypan blue exclusion); type: cell-based, human; details: 48 hours
Protocol: as §2

[15] = system: Lewis lung carcinomas (LLC); test: Lewis lung carcinoma tumor growth in syngeneic mice; type: in vivo, C57BL/6 mice; details: 120 mg/kg daily by gavage
Protocol: as §1

[16] = system: glycolysis in H460 cells; test: Glycolysis assay (3H2O from 5-[3H]glucose); type: cell-based, human; details: 10 μM, 6-72 hours
Protocol: Cells growing in 6-well plates were incubated in 500 μl of complete medium containing 1 μCi of 5-[^3H]glucose per well for 60 min in 5% CO2 at 37°C. Media was collected, ^3H2O formed via glycolysis from the 5-[^3H]glucose measured and counts normalized as previously described. All data are expressed as the mean ± SD of three experiments. Statistical significance was assessed by the two-sample t test (independent variable).

[17] = system: intracellular F2,6BP in H460 cells; test: F2,6BP measurement in H460 cells; type: cell-based, human; details: for [F2,6BP]: 24 hours (DMSO 6.1 ±0.2)
Protocol: Cells or tissues were prepared as previously described and F2,6BP content measured using a coupled enzyme reaction following the method of Van Schaftingen et al and normalized to total cellular protein measured by the bicinchoninic acid assay (Thermo Scientific). All data are expressed as the mean ± SD of three experiments. Statistical significance was assessed by the two-sample t test (independent variable).

[18] = system: recombinant PFK-1; test: PFK-1 kinase activity; type: biochemical; details: 10 μM

Chain of human recombinant PFKFB4 (Q16877 whole entry): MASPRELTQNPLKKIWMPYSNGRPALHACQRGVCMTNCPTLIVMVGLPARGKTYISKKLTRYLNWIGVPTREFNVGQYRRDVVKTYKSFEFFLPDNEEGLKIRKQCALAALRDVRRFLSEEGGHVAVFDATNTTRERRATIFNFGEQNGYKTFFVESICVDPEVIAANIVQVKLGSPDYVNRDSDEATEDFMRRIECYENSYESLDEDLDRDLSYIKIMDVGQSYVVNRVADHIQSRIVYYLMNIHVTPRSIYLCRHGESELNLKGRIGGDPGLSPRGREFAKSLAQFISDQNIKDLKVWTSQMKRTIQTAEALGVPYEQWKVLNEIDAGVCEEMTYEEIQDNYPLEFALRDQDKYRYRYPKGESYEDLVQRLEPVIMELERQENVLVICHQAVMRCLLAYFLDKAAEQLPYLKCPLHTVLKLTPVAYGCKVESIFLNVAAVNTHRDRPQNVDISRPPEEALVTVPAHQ

## COc1cccc2c(NCCCCCO[N+](=O)[O-])ccnc12 [Compound 5MPN, 5-(n-(8-methoxy-4-quinolyl)amino)pentyl nitrate]
[1]; H460-bearing BALB/c athymic mice
  body weight: without affecting body weight
[1]; H460 xenografts in BALB/c athymic mice
  tumor growth: suppressed the growth
[2]
  effect on ATP: reduced
[3]
  effect on cell growth: virtually unaffected
[4]
  mode of inhibition: competitive inhibitor of the F6P binding site
[4]; F6P as substrate, read-out: Ki for 5MPN inhibition
  Ki: 8.6 ± 1.9 µM
[5]
  increase in apoptotic cells: only a minimal increase
[6]
  effect on proliferation: dose-dependent reduction in growth
[7]
  effect on proliferation: dose-dependent reduction in growth
[8]
  effect on proliferation: dose-dependent reduction in growth
[9]
  effect on proliferation: dose-dependent reduction in growth
[10]
  effect on proliferation: dose-dependent reduction in growth
[11]
  effect on proliferation: dose-dependent reduction in growth
[12]
  effect on cell growth: suppressed similar to other transformed cells
[13]; H460, 48 hours
  effect on proliferation: dose-dependent reduction in growth
[13]; H460 cells transfected with PFKFB4 vs empty vector, 10μM 5MPN, 24 hours
  effect of PFKFB4 over-expression on anti-proliferative effect: protected
[14]
  effect on proliferation: dose-dependent reduction in growth
[15]; LLC in syngeneic C57BL/6 mice
  tumor growth: suppressed the growth
[15]; LLC-bearing C57BL/6 mice
  body weight: without affecting body weight
[16]
  effect on glycolysis: reduced
[17]; 5μM 5MPN
  [F2,6BP]: 2.3 ±0.05 pmol/mg protein
[17]; 10μM 5MPN
  [F2,6BP]: 1.52 ±0.2 pmol/mg protein
[17]; 20 μM 5MPN
  [F2,6BP]: 0.75±0.09 pmol/mg protein
[17]; 30 μM 5MPN
  [F2,6BP]: 0.43 ±0.1 pmol/mg protein
[17]; Vec vs FB4, 10 μM 5MPN, 24 hours
  effect of PFKFB4 over-expression on the reduction in F2,6BP caused by 5MPN: reversed
[18]
  inhibition of PFK-1 kinase activity: no inhibition of kinase activity
